The numbers were not newly measured in patent US20260151341A1, “NOVEL AMORPHOUS ACTIVE PHARMACEUTICAL INGREDIENTS” (DISRUPTIVE PHARMA AB, priority 2020, published 2026), which cites them from elsewhere.

The conditions of this data set: mesoporous silica, study referred to by Gupte et al.

Turning to `CCC(C)n1ncn(-c2ccc(N3CCN(c4ccc(OCC5COC(Cn6cncn6)(c6ccc(Cl)cc6Cl)O5)cc4)CC3)cc2)c1=O` (stereo not shown) [Itraconazole, itraconazole], the “loading at which stabilized by silica” value was “more than 32 % by weight”.
